The values that follow come from patent US12364673B2, “Methods and compositions for treating lysosomal storage disorders: ambroxol as treatment agent for Mucopolysaccharidoses III (Sanfilippo syndrome)” (Lysosomal and Rare Disorders Research and Treatment Center, …, priority 2019, dated 2025).

The subject of data set [1] is lysosomal integral membrane protein-2 (LIMP-2). To be noted: cited from earlier work.
The target in data set [2] is T1, glucocerebrosidase (GCase) (Homo sapiens, UniProt P04062).
T1 sequence (P04062 40-536): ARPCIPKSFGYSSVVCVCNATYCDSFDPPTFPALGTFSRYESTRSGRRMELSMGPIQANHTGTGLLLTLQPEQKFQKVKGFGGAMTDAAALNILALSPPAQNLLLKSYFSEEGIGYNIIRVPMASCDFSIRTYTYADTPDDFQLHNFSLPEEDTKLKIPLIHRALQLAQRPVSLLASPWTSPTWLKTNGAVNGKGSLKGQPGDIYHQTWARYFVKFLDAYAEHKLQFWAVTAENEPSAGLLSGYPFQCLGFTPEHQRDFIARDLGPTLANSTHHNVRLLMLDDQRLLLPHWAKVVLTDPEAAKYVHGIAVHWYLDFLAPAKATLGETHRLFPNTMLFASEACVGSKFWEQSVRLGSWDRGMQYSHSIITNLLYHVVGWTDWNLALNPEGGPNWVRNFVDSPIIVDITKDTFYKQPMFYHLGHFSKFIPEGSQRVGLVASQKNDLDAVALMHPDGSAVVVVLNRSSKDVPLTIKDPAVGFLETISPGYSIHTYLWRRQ
To be noted: pH 4.3, near lysosomal pH; cited from earlier work.

Data set [3] deals with acidic lysosomes. The experiment in a line: Lysosome staining with LysoTracker Red DND-99 dye. Format: cell-based, human. How it is done: To examine the effects of ambroxol on autophagy-lysosomal pathway, the autophagy dye […] and lysosome marker LysoTracker Red were used. […] The autophagy fusion was studied using autophagy detection reagent […] fluorescence probe stained autophagosome on late-phase autophagy when autophagosome fused with a lysosome. Lysosome organelles were analyzed using LysoTracker Red DND-99 red-fluorescent dye which stained acidic organelles in live cells. PBMC were isolated from the patient with MPS III-B disease, incubated five days with ambroxol, and then were stained. […] Macrophages derived from a patient with MPS III Type C.

The subject of data set [4] is PBMC. The experiment in a line: ATP production of ambroxol incubated PBMC. The format is cell-based, human. To be noted: 100 μM ambroxol.
Data set [5] relates to heparan sulfate (HS). In words: Heparan sulfate ELISA in PBMC cell extracts. The format is cell-based, human. How it is done:
To investigate the effect of ambroxol on HS degradation, the heparin sulfate ELISA assay (Aviva Systems Siology) was assessed. PBMC derived from healthy controls and MPS III patients were incubated with a concentration of ambroxol 1, 10 and 100 μM. PBMC after five days of incubation were collected and heparan sulfate levels were measured in cells extracts.
On the technique in general: In an ELISA, binding on a coated surface is turned into a signal by an enzyme label.

The subject of data set [6] is PBMC. In words: Cell viability of ambroxol incubated PBMC. Particulars: 100 μM ambroxol. Format: cell-based, human.
For data set [7], the system named is N-acetyl-alpha-glucosaminidase (NAGLU). The experiment in a line: NAGLU enzyme activity in patient-derived PBMC. The format is cell-based, human. Particulars: PBMC from MPS III Type B patient, 5 days incubation. How it is done: PBMC were cultured for 5 days with an increasing concentration of ambroxol. […] We measured enzyme activity in PBMC (peripheral blood mononuclear cell) derived from MPS III Type B patients with NAGLU enzyme deficiency. After incubation for five days in the presence of 1, 10, and 100 μM of ambroxol, NAGLU enzyme activity was measured and compared negative control versus ambroxol incubated cells (FIG. 1). […] PBMC were cultured for 5 days with an increasing concentration of ambroxol.

Data set [8] concerns heparan-alpha-glucosaminide N-acetyltransferase (HGSNAT). In words: HGSNAT enzyme activity in PBMC. The format is cell-based, human. As to the method: PBMC were cultured for 5 days with an increasing concentration of ambroxol.
HGSNAT enzyme activity was measured and compared as negative control versus ambroxol incubated PBMC derived from a patient with MPS III Type C (FIG. 2).

The subject of data set [9] is autophagy fusion with the lysosome. In words: Autophagy fusion staining with DALGreen detection reagent. The format is cell-based, human.
The mark [10] stands for this setting: PBMC from patient with MPS III-B, five days with ambroxol.
The mark [11] stands for this setting: macrophages from patient with MPS III Type C, 5 days with ambroxol.

On to `Nc1c(Br)cc(Br)cc1CN[C@H]1CC[C@H](O)CC1` [ambroxol, trans-4-(2-Amino-3,5-dibromobenzylamino)-cyclohexanol], for which, in data set [1], the LIMP-2 level entry was “increased”. Besides, the “effect on GCase enzyme” value in [2] was “activator”. Further, the “proportion of acidic lysosomes (LysoTracker Red staining)” value in data set [3] (setting [10]) and in data set [3] (setting [11]) was “significant increasing” in each case. The lysosome function entry in data set [3] (cells derived from healthy controls and MPS III-B, MPS III-C and MPS III-D patients (summary)) was “activates”. The ATP production entry in [4] is listed as “inhibition”. Moreover, the “heparan sulfate (HS) level” value is “decreased” in data set [5] (PBMC from MPS III-A patient, 5 days with ambroxol, vs negative control); “decreased” in data set [5] (PBMC from MPS III-B patient, 5 days, 10 μM ambroxol); “decreased” in data set [5] (PBMC from MPS III-B patient, 5 days, 100 μM ambroxol); “decreasing” in data set [5] (PBMC from MPS III-C patient, 5 days with ambroxol, vs negative control); “decreased” in data set [5] (PBMC from MPS III-D patient, 5 days, 10 μM ambroxol); “decreased” in data set [5] (PBMC from MPS III-D patient, 5 days, 100 μM ambroxol). The “heparan sulfate (HS) level” value in data set [5] (PBMC from healthy controls (n=4), 5 days with ambroxol, vs negative control) is listed as “decreased”. Besides, the cell viability result in [6] is “decreasing”. For the same compound, the “NAGLU enzyme activity increase vs negative control” value in data set [7] (1 μM ambroxol) and in data set [7] (10 μM ambroxol) was 15% throughout. Besides, the NAGLU activity entry in data set [7] (100 μM ambroxol) was “Decreasing”. Moreover, the HGSNAT activity result in [8] (PBMC from a healthy subject, ambroxol incubation (data not shown)) is “no increase”; in [8] (PBMC from a patient with MPS III Type C, 5 days ambroxol incubation), “no increase”. In addition, the “autophagy fusion (DALGreen staining)” value in [9] (PBMC from healthy control, five days with ambroxol) is “significant increase”; in data set [9] (PBMC from two patients with MPS III-D, five days with ambroxol), “significant increase”. Moreover, the “activity of autophagy fusion (DALGreen staining)” value in [9] (setting [10]) and in data set [9] (setting [11]) was “increasing” in each case.
